Measured values published in paper PMC8662641, “Site-Specific Labeling of Endogenous Proteins Using CoLDR Chemistry” (Journal of the American Chemical Society, 2021).
Values joined by “and” are separate entries in the source; they are usually repeats but may differ in a detail not shown here. Equal values may be shown once.

What was measured:
BTK-1h = target: T1, BTK-1h (Homo sapiens, UniProt Q06187); assay: High-throughput screening with 1h-labeled BTK; type: binding
T1 construct: The BTK kinase domain was diluted to 2 μM in the buffer, and 2 μM 1h was added; made in house
T1 sequence (Q06187 402-655): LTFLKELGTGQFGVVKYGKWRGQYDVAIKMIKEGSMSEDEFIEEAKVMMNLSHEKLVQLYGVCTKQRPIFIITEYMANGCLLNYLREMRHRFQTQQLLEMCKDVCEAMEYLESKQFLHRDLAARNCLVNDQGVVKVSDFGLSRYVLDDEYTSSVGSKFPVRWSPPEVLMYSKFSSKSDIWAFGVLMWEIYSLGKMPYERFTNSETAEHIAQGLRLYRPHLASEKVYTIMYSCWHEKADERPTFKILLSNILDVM
Procedure: The collection was composed of BTK binding compounds obtained in our previous luminescence screen[37] (Data set S2). […] The resulting BTK-1h (50 μL) was added to the inhibitors.

BTK = BTK (Homo sapiens, UniProt Q06187); design: BTK kinase domain was expressed and purified as previously reported; made in house; method as in Reddi et al., J. Am. Chem. Soc. 2021, 143 (13), 4979–4992; details: ref Reddi et al., J. Am. Chem. Soc. 2021, 143 (13), 4979–4992; cited from earlier work
Sequence of BTK (Q06187 402-655 limits assumed): as the sequence (Q06187 402-655) above

[1] = Dataset S2A, 200 μM compound, BTK-1h, 32 °C, 10 min

| FI (650)/FI (620) (BTK-1h; [1]) | FI (BTK-1h)/FI (BTK-1h+Inhibitor) at 620 nm (BTK-1h; [1]) | FI (BTK-1h)/FI (BTK-1h+Inhibitor) at 620 nm (BTK-1h; Dataset S2B, 200 μM inhibitor added to BTK-1h (2 μm)) | SMILES | BTK Inhibition reported in luminescence assay* (BTK) |
| --- | --- | --- | --- | --- |
| 0.9726 | 1.02 | – | CCOC(=O)c1ccc(NC(=O)O[C@H]2[C@H](OC(=O)Nc3ccc4c(c3)OCO4)[C@@H](OC(=O)Nc3ccc4c(c3)OCO4)[C@@H](OC)O[C@@H]2CO)cc1 [PCM-0215463-001] | 98.1 |
| 1.281 | 1.027 | – | O=S(=O)([O-])c1ccc2cc(N=Nc3cc(S(=O)(=O)[O-])c4cccnc4c3O)ccc2c1.[Na+].[Na+] [PCM-0215685-001] | 54.1 |
| 1.5507 | 1.003 | – | Cc1ccc(NC(=O)Nc2cc(C(F)(F)F)ccc2F)cc1Nc1ccc2c(c1)NC(=O)/C2=C\c1ccc[nH]1 [PCM-0215372-001] | 115.9 |
| 1.912 | 0.9002 | – | O=C(O)CSc1cc(NS(=O)(=O)c2ccc(Br)cc2)c2ccccc2c1O [PCM-0215378-001] | 51.7 |
| 1.019 | 1.0396 | – | COc1cccc(-n2c(=O)[nH]c3cc(Cl)n(-c4ccc(-c5cccc(OC)c5O)cc4)c3c2=O)c1 [PCM-0215555-001] | 99.3 |
| 0.8921 | 1.024 | – | Cc1cc(C)nc(NS(=O)(=O)c2ccc(NC(=S)NC(=O)COc3ccc(Br)cc3Cl)cc2)n1 [PCM-0095801-002] | 59.5 |
| 0.8526 | 1.036 | – | Cl.Cl.Fc1ccc(C(c2ccc(F)cc2)N2CCN(C/C=C/c3ccccc3)CC2)cc1 [PCM-0065210-003] | 87.2 |
| 1.073 and 1.008 | 1.009 and 1.024 | – | Cc1ccc(-n2[nH]c(C)c(N=Nc3cccc(-c4cccc(C(=O)O)c4)c3O)c2=O)cc1C [PCM-0214811-001] | 80.2 |
| 0.9923 | 1.053 | – | COc1ccc2c(O[C@@H]3C[C@H]4C(=O)N[C@]5(C(=O)NS(=O)(=O)C6CC6)C[C@H]5/C=C\CCCCN(C)C(=O)[C@@H]4C3)cc(-c3nc(C(C)C)cs3)nc2c1C [PCM-0215097-001] | 55.6 |
| 1.043 | 1.041 | – | C=CC(=O)Nc1cccc(C)c1Nc1ncc2cc(-c3c(Cl)c(OC)cc(OC)c3Cl)ccc2n1 [PCM-0215508-001] | 100.4 |
| 1.105 | 1.137 | – | NC(=O)Nc1cc(-c2cccc(F)c2)sc1C(=O)N[C@H]1CCCNC1 [PCM-0095092-003] | 86.9 |
| 1.1215 | 1.062 | – | Cc1c[nH]c2nc(Nc3ccc(N4CCN(C)CC4)c(F)c3)nc(-c3cccc(CC#N)c3)c12 [PCM-0215633-001] | 92.4 |
| 1.505 | 1.061 | – | Cc1c[nH]c(/C=C2\C(=O)Nc3ccccc32)c1CCC(=O)O [PCM-0216652-001] | 83.4 |
| 3.101 | 1.308 | – | CCCCCC/C=C\CCCCCCCc1cccc(O)c1C(=O)O [PCM-0216327-001] | 84.2 |
| 1.399 | 1.003 | – | C[n+]1cc2c3c(ccc2c2ccc4cc5c(cc4c21)OCO5)OCO3.[Cl-] [PCM-0065605-002] | 75.7 |
| 1.048 and 1.073 | 1.015 and 1.028 | – | CC(O)C(=O)O.CN1CCN(c2ccc3nc(-c4c(N)c5c(F)cccc5[nH]c4=O)[nH]c3c2)CC1.O [PCM-0094915-004] | 53.8 |
| 0.9335 | 1.037 | – | CC(C)(C)c1cc(/C=C(\C#N)C(N)=S)cc(C(C)(C)C)c1O [PCM-0064936-001] | 82.8 |
| 1.083 | 1.158 | – | COc1cc(N2CCC(N(C)C)CC2)ccc1Nc1ncc(Cl)c(Nc2ccccc2P(C)(C)=O)n1 [PCM-0215177-001] | 64.8 |
| 1.701 | 1.062 | – | Cn1cc(C2=C(c3cccc(N)c3)C(=O)NC2=O)c2ccccc21 [PCM-0215795-001] | 80.3 |

| FI (650)/FI (620) (BTK-1h; [1]) | FI (BTK-1h)/FI (BTK-1h+Inhibitor) at 620 nm (BTK-1h; [1]) | FI (BTK-1h)/FI (BTK-1h+Inhibitor) at 620 nm (BTK-1h; Dataset S2B, 200 μM inhibitor added to BTK-1h (2 μm)) | SMILES | BTK Inhibition reported in luminescence assay* (BTK) |
| --- | --- | --- | --- | --- |
| 1.233 | 0.999 | – | O=C(O)c1ccc(N2C(=O)/C(=C/c3ccc(-c4ccc([N+](=O)[O-])cc4)o3)C=C2c2ccccc2)cc1 [PCM-0095764-003] | 98.1 |
| 1.045 | 1.069 | – | Cc1cc(C(=O)Nc2nc3cccc(Cl)c3n2[C@@H]2CCCCN(C(=O)/C=C/CN(C)C)C2)ccn1 [PCM-0215804-001] | 73.8 |
| 1.877 | 1.327 | – | COc1cc(N2CCC(N3CCN(C)CC3)CC2)ccc1Nc1ncnc(Nc2ccccc2S(=O)(=O)C(C)C)n1 [PCM-0215273-001] | 89 |
| 0.9908 | 1.0756 | – | Cc1nc(Nc2n[nH]c3c2CN(C(=O)N[C@H](CN(C)C)c2ccccc2)C3(C)C)c2sccc2n1 [PCM-0095819-002] | 72.4 |
| 0.9979 | 1.038 | – | COC1=CC(=O)c2ccccc2C1=O [PCM-0214886-001] | 85.6 |
| 1.311 | 1.005 | – | Nc1ccc(O)cc1 [PCM-0216110-001] | 82.6 |
| 1.107 | 1.042 | – | CCCCCCCCCCCCc1ccc(S(=O)(=O)Nc2nncs2)cc1 [PCM-0095111-002] | 53.8 |
| 1.3565 | 1.092 | – | Cn1cc(-c2cc(Oc3cc(F)c(NC(=O)C4(C(=O)Nc5ccccc5)CC4)cc3F)ccn2)cn1 [PCM-0216116-001] | 88.8 |
| 1.007 | 1.033 | – | Cc1cnc(Nc2ccc(F)cc2Cl)nc1-c1c[nH]c(C(=O)N[C@H](CO)c2cccc(Cl)c2)c1 [PCM-0213398-002] | 60 |
| 1.1509 | 1.028 | – | C=CC(=O)Nc1cccc(Nc2nc(Nc3ccc(NC4CN(CCF)C4)cc3OC)ncc2C(F)(F)F)c1 [PCM-0215208-001] | 91 |
| 0.9847 | 1.0465 | – | O=C1NC(=O)C(c2cnc3ccccn23)=C1c1cn2c3c(cc(F)cc13)CN(C(=O)N1CCCCC1)CC2 [PCM-0215438-001] | 80 |
| 0.9898 | 1.025 | – | O=C(NC(NC(=S)Nc1ccc(F)c([N+](=O)[O-])c1)C(Cl)(Cl)Cl)C(c1ccccc1)c1ccccc1 (centres unmarked) [PCM-0215199-001] | 105.5 |
| 1.221 | 1.15 | – | CN1CCN(Cc2ccc(Nc3ncc(Cl)c(Nc4ccccc4S(=O)(=O)N(C)C)n3)cc2)CC1 [PCM-0215510-001] | 67.2 |
| 1.754 | 1.03 | – | COC(=O)C1=C(C)NC(C)=C(C(=O)O[C@@H]2CCCN(Cc3ccccc3)C2)[C@@H]1c1cccc([N+](=O)[O-])c1.Cl [PCM-0214706-001] | 80.9 |
| 0.9282 | 1.039 | – | C=CC(=O)Nc1ccc2ncnc(Nc3ccc(OCc4cccc(F)c4)c(Cl)c3)c2c1.Cc1ccc(S(=O)(=O)O)cc1 [PCM-0095229-002] | 109.7 |
| 1.148 | 1.067 | – | COc1nc2ccc(Br)cc2cc1[C@@H](c1ccccc1)[C@@](O)(CCN(C)C)c1cccc2ccccc12.O=C(O)/C=C/C(=O)O [PCM-0215093-001] | 84 |
| 0.8854 | 1.06 | – | CC(C)(O)CC(=O)NCCn1ccc2ncnc(Nc3ccc(Oc4cccc(C(F)(F)F)c4)c(Cl)c3)c21 [PCM-0095364-002] | 73.8 |
| – | 2.544 | 4.404 | CC#CC(=O)N1CC[C@@H](n2c(=O)n(-c3ccc(Oc4ccccc4)cc3)c3c(N)ncnc32)C1 [PCM-0215519-001, ONO-4059] | – |

| SMILES | FI (650)/FI (620) (BTK-1h; [1]) | FI (BTK-1h)/FI (BTK-1h+Inhibitor) at 620 nm (BTK-1h; [1]) | FI (BTK-1h)/FI (BTK-1h+Inhibitor) at 620 nm (BTK-1h; Dataset S2B, 200 μM inhibitor added to BTK-1h (2 μm)) | BTK Inhibition reported in luminescence assay* (BTK) |
| --- | --- | --- | --- | --- |
| Cl[Te]1(Cl)(Cl)OCCO1.N [PCM-0215721-001] | 1.1548 | 1.038 | – | 98.6 |
| O=C(c1ccccc1O)c1[nH]c(Cl)c(Cl)c1-n1c(C(=O)c2ccccc2O)cc(Cl)c1Cl [PCM-0215850-001] | 1.151 | 1.016 | – | 117.4 |
